Source: patent US8691791B2, “Microspheres for treatment of brain tumors” (Biocompatibles UK Limited, priority 2007, dated 2014)

What was measured:
Type in all cases: physicochemical
[1] = Maximum loading capacity of DEB with Doxorubicin and Mitoxantrone; conditions: beads 700-900 μm
Description: Microspheres of the invention were prepared as described in the Reference Example. Sample beads of the size range 700-900 μm were loaded by immersing the beads in aqueous solutions of Doxorubicin HCl (Dox) and Mitoxantrone 2HCl (Mitox). Loading was monitored using UV-visible spectroscopy at the respective wavelengths for absorption maxima of the two drugs (483 nm and 660 nm respectively). The beads were sized and imaged using an Olympus BX50F4 microscope with a Colorview III camcorder. Compressibility was measured using an Instron 4411 with a 50 N load cell.

[2] = AQ4 and AQ4N loading profile and maximum loading capacity of DC Bead; conditions: DC Bead 500-700 μm; AQ4N target loading 60 mg/mL, 20 hr
[3] = Elution of doxorubicin from high AMPS microspheres into distilled water
Description: High AMPS microspheres were loaded with various concentrations of doxorubicin and the microspheres eluted into 250 ml of distilled water (FIG. 2).
For the higher drug loadings, a burst effect is evident in the first few minutes, followed by a prolonged period of slower release. It is surmised that the burst represents the free drug eluting from the water held within the microspheres, whereas the prolonged elution results from the drug that is “bound” into the spheres essentially by ionic interaction between the charged groups. For the highest loading of drug (from the 20 mg/ml loading solution), the burst effect represents some 45% of the total drug loading of the spheres, the remainder taking several days to completely elute from the carrier. Studies have shown that 100% of the drug is eventually eluted from the microspheres. Drug-loaded beads were lyophilised to remove water and sterilised using gamma irradiation.

[4] = Irinotecan loading capacity of microspheres (depletion method, UV 369 nm); conditions: microspheres 500-700 μm, irinotecan solution 20 mg/ml, at least 4 hours
Description: Irinotecan-loading content and loading efficacy was determined using microspheres, 500-700 μm. A bead slurry was mixed with irinotecan solution (20 mg/ml) in calculated amount, rotating-mixed for at least 4 hours. The solution was measured with UV at 369 nm to determine the irinotecan concentration and the drug-loading in beads (by depletion method). […] Above this the loading efficacy dropped remarkably, indicating saturation of the beads.

[5] = Elution from irinotecan lyophilised microspheres into PBS buffer
Excerpt: Irinotecan was eluted from lyophilised microspheres with different loadings of camptothecin into PBS buffer. The elution rate slowed down after lyophilisation when compared with the non-lyophilised samples. […] Drug-loaded beads were lyophilised to removed water and sterilised using gamma irradiation.

Row | maximum loading capacity in DC Bead [2] [mg/mL] | drug eluting at 3 hours ([3]; 133.2 μg/ml and 2 mg/ml loaded microspheres, 250 ml distilled water) | drug eventually eluted from the microspheres ([3]; high AMPS microspheres) [%] | burst effect as share of the total drug loading of the spheres ([3]; high AMPS microspheres, highest loading (20 mg/ml loading solution), 250 ml distilled water, first few minutes) [%] | concentration range in which irinotecan content in beads increased linearly with loading amount (above it saturation of the beads) [4] | elution rate after lyophilisation compared with non-lyophilised samples [5] | SMILES | Average (mg) of drug per mL of beads (average maximum capacity of DEB) [1] | Mols of loaded drug/Mols of available binding sites [1] | Average (mg) of drug per mL of beads (average maximum capacity of DEB) ([1]; listed as Mitox)
1 |  |  |  |  |  |  | O=C1c2c(O)ccc(O)c2C(=O)c2c(NCCNCCO)ccc(NCCNCCO)c21 [Mitoxantrone] | 20.0 mg per mL of beads | 0.5 | 20 mg per mL of beads
2 | 40 | below the detection limit | 100 | ~45 |  |  | COc1cccc2c1C(=O)c1c(O)c3c(c(O)c1C2=O)C[C@@](O)(C(=O)CO)C[C@@H]3O[C@H]1C[C@H](N)[C@H](O)[C@H](C)O1 [Doxorubicin] | 39.0 mg per mL of beads | 0.9 | 
3 |  |  |  |  | below 50 mg/ml | slowed down | CCc1c2c(nc3ccc(OC(=O)N4CCC(N5CCCCC5)CC4)cc13)-c1cc3c(c(=O)n1C2)COC(=O)[C@]3(O)CC [Irinotecan] |  |  | 
